# Experimental data: patent publication US20240336679A1, “METHODS FOR THE TREATMENT OF CANCER” (INSTITUT REGIONAL DU CANCER DE MONTPELLIER, priority 2021, published 2024)
# Structures can show the parent of a compound that is named as a salt.
# Experiments:
# [1] = system: PHGDH, PSAT1 and PSPH mRNA in C2C12 myoblasts cocultured with IB115 liposarcoma cells; assay: shRNA assay: RT-qPCR of serine synthesis genes in C2C12 myoblasts cocultured with IB115 cells depleted of human IL-6; format: cell-based, mouse; conditions: FIG. 4, myocytes cultured with LPS (IB115) and treated with shIL-6
# Description: (§1) Total mRNAs were isolated from myoblasts (C2C12 cells) using TRIzol Reagent (Invitrogen) as previously described (Riscal et al. Mol Cell. 2016 Jun. 16; 62 (6): 890-902). Afterwards, Reverse Transcription of 1 μg mRNA into cDNA was performed using SuperScript III Reverse Transcriptase (Invitrogen), according to the manufacturer protocol. Quantification of the produced cDNA was achieve by Real-time quantitative PCRs on a LightCycler 480 SW 1.5 apparatus (Roche) using SYBR Green mix (Ozyme) plus the oligonucleotides of interest, and the following amplification protocol: 45 cycles of 95° C. for 4 s, 60° C. for 10 s, and 72° C. for 15 s. Analysis of the relative gene expression (mRNA copy number) was realized using Ct values and the 2^−ΔCt method, normalized on at least two different housekeeping genes (TBP, Tubuline, RPL13a, Gus B, β-microglobuline).
# Relative quantities of mRNA of MDM2 direct target genes PHGDH, PSAT1 and PSPH were determined by RT qPCR in C2C12 myoblasts cultured alone or in coculture with IB115 cells treated or not for shRNA mediated depletion of human IL-6 (shIL-6). Data were normalized to the corresponding control samples prepared from IB115 cells treated with a control shRNA (mean SD n=3 independent experiments) Statistical significance was evaluated using non parametric Mann Whitney U tests.
# XG-6 cells = assay: Growth of IL-6 dependent cell line XG-6; format: cell-based; conditions: FIG. 3; RPMI, 2 ng/ml, 3 days; no growth without IL-6
# Description: 50 000 XG-6 cells (IL-6 dependent cell line) were seeded in an equal number in four plastic dishes and cultured in suspension in 2 ml of RPMI (Gibco) medium at 37° C./5% CO2 for 3 days. The fourth dishes' conditions are as follows: • XG-6 cells cultured in 2 ml of RPMI in the presence of 2 ng/ml of recombinant IL-6 (obtained with the method illustrated in Wijdenes et al., Mol Immunol, 28 (1991), p. 1183) • XG-6 cells cultured in 2 ml of RPMI, • XG-6 cells cultured in 2 ml of MCF7 cell lines supernatant as previously obtained, • XG-6 cells cultured in 2 ml of IB115 cell lines supernatant as previously obtained.
# [2] = system: PHGDH, PSAT1 and PSPH mRNA in C2C12 myoblasts cocultured with IB115 liposarcoma cells; assay: Anti-IL-6 assay: RT-qPCR of serine synthesis genes in C2C12 myoblasts cocultured with IB115 cells treated with IL-6 signaling inhibitors; format: cell-based, mouse; conditions: FIG. 11; for PSPH relative mRNA level: co-culture myoblasts with LPS, without inhibitors about 3.1; for PHGDH relative mRNA level / PSAT1 relative mRNA level: co-culture myocytes with LPS; for PHGDH relative mRNA level: without inhibitors 1.6; for PSAT1 relative mRNA level: without inhibitors about 2; for IL-6 dependent enhancement of the serine synthesis way (PHGDH, PSAT, PSPH mRNA): C2C12 myoblasts cocultured with IB115
# Description: as §1
# Relative quantities of mRNA of MDM2 direct target genes PHGDH, PSAT1 and PSPH were determined by RT-qPCR in C2C12 cells culture alone or in coculture with IB115 cells treated or not with a blocking anti-IL-6 antibody (Wijdenes et al., Mol Immunol, 28 (1991), p. 1183),i.e., IL-6 receptor inhibitor such as Bazedoxifène, or STAT3 inhibitors such as C188-9 and Stattic (mean+/−SD; n=3 independent experiments). Statistical significance was evaluated using non-parametric Mann-Whitney U tests.
# [3] = system: cancer cells exhibiting recruitment of MDM2 to chromatin (C-MDM2 (+)); assay: Cell viability / IC50 measurement (SRB assay) upon SP141 treatment; format: cell-based, human; conditions: FIG. 8; as soon as 24 hours after treatment with low concentrations
# Description: Cell survival after SP141, IL-6, IL-6 inhibitor and/or serine/glycine deprived diet treatment (IC50) was determined using the Sulforhodamine B assay (SRB assay). Cells were seeded in 96-well plates (Sarsted) in complete DMEM medium as to obtain triplicates for each conditions (5 000 cells/well). After 24 h, serial dilutions of the indicated compounds were added to the cells. […] Fixed SRB was finally dissolved in 10 mM Tris-HCl solution and 560 nm absorbance was read using a PHERAstar FSX plate reader.
compound,measurement,setting,value
"shIL-6: shRNA to inactivate human IL-6 expression; a sequence may be 5′-GACACTATTTTAATTATTTTTAA-3′ (shRNA, chemistry and expression mode not given here, further chemistry not given here)",relative mRNA level of PSAT,"[1]; myocytes alone about 1, with LPS about 1.75",about 1 AU
same,relative mRNA level of PSPH,"[1]; myocytes alone about 1, with LPS about 2.5",about 1 AU
same,relative mRNA level of PHGDH,"[1]; myocytes alone about 1, with LPS about 4.4",about 1.75 AU
recombinant IL-6: recombinant IL-6 obtained with the method of Wijdenes et al.; positive control for XG-6 growth,Quantity of XG-6 cells,XG-6 cells,more than 150000 AU
"Cc1c(-c2ccc(O)cc2)n(Cc2ccc(OCCN3CCCCCC3)cc2)c2ccc(O)cc12 [BZA, 1-[[4-[2-(Hexahydro-1H-azepin-1-yl)ethoxy]phenyl]methyl]-2-(4-hydroxyphenyl)-3-methyl-1H-indol-5-ol monoacetate (salt)]",PSPH relative mRNA level,[2]; 100 nM,about 1.8 A.U
same,PHGDH relative mRNA level,[2]; 100 nM,about 0.6 A.U
same,PSAT1 relative mRNA level,[2]; 100 nM,about 1.3 A.U
COc1ccc(S(=O)(=O)Nc2cc(-c3c(O)ccc4ccccc34)c(O)c3ccccc23)cc1 [C188-9],"IL-6 dependent enhancement of the serine synthesis way (PHGDH, PSAT, PSPH mRNA)",[2]; 10 nM,decreases
same,PSPH relative mRNA level,[2]; 10 nM,about 1.5 A.U
same,PHGDH relative mRNA level,[2]; 10 nM,about 0.5 A.U
same,PSAT1 relative mRNA level,[2]; 10 nM,about 1.3 A.U
O=[N+]([O-])c1ccc2c(c1)S(=O)(=O)C=C2 [Stattic],"IL-6 dependent enhancement of the serine synthesis way (PHGDH, PSAT, PSPH mRNA)",[2]; 10 nM,decreases
same,PSPH relative mRNA level,[2]; 10 nM,about 1.75 A.U
same,PSAT1 relative mRNA level,[2]; 10 nM,~1.5 A.U
COc1ccc2[nH]c3c(-c4cccc5ccccc45)nccc3c2c1 [SP141],cell viability of cancer cells C-MDM2 (+),[3],important loss of cell viability
